Data on eight compounds can be found in patent US20230233425A1, “USE OF VOLATILE COMPOSITIONS TO LIMIT OR ELIMINATE THE PERCEPTION OF MALODOR” (Firmenich SA, priority 2017, published 2023).

Experiment [1] deals with T1, Olfr744 (Mus musculus, UniProt Q7TRM0).
T1 construct: Flag; Rho tag; expressed in transfected cells
T1 sequence (Q7TRM0 1-323): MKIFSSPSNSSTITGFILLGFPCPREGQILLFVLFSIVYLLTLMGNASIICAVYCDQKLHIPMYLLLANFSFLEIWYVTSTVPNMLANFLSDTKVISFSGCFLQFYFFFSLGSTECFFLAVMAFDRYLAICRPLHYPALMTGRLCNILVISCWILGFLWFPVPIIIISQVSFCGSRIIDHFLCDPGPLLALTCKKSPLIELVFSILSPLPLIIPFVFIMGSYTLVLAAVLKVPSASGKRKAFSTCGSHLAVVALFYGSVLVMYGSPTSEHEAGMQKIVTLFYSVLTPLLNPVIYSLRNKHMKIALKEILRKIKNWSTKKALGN
Description: Indole antagonist dose-response, cAMP HTRF in HEK293T, vs indole EC80. It is filed as cell-based. To be noted: Table 23. As for the experimental part: (§1) Functional dose-response experiments were performed to identify compounds capable of antagonizing indole-sensitive receptors previously identified (U.S. Pat. No. 9,914,760 B2). Using a cell-based assay, mouse receptor Olfr738, Olfr739, Olfr740, Olfr741, 0fr742, Olfr743, Olfr744, Olfr746, Olfr748 and Olfr749 were tested in an HEK293T cell line wherein the endogenous RTP1 gene has been activated and the odorant receptor chaperone was expressed (described in WO2016201153A1). The receptor genes were tagged with a Flag-Rho tag combination. Receptor genes were co-transfected with the canonical olfactory human G-protein alpha subunit Golf gene. Co-expression of the human Golf activates the Gs transduction pathway that leads to an internal cAMP increase upon binding to the appropriate ligand (indole here). Odorant-induced activity was detected by measuring the cAMP increase in the cytosol using an HTRF based kit (CisBio, cAMP dynamic 2 kit, cat. 62AM4PEJ). The receptors were exposed to binary mixtures of increasing concentrations of the test compounds in the presence of a potent activation concentration of indole (EC80) for each receptor. […] All the compounds listed decreased the indole induced activity of at least one receptor.
Background: In TR-FRET formats the signal depends on donor and acceptor labels being close together.

Experiment [2] deals with Olfr739 (Mus musculus, UniProt E9Q1P0). The description is as above. It is filed as cell-based. To be noted: for pIC50: Table 22, first listing (r7-r45). The protocol: as §1
For experiment [3], the target named is T2, Olfr746 (Mus musculus, UniProt E9Q840).
T2 construct: Flag; Rho tag; expressed in transfected cells
T2 sequence (E9Q840 1-314): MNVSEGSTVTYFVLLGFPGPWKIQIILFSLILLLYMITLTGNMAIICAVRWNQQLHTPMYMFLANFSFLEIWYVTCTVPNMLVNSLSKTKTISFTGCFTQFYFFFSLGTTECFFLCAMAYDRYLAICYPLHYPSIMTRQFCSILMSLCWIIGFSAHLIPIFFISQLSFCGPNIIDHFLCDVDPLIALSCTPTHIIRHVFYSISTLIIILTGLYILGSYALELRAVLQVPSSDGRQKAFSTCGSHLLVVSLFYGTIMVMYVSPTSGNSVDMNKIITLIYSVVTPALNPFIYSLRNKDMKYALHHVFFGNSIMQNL
The experiment is described as above. The following applies: Table 23. It is filed as cell-based. As for the experimental part:
as §1

In experiment [4] the target is T3, Olfr749 (Mus musculus, UniProt E9Q438).
T3 construct: Flag; Rho tag; expressed in transfected cells
T3 sequence (E9Q438 1-313): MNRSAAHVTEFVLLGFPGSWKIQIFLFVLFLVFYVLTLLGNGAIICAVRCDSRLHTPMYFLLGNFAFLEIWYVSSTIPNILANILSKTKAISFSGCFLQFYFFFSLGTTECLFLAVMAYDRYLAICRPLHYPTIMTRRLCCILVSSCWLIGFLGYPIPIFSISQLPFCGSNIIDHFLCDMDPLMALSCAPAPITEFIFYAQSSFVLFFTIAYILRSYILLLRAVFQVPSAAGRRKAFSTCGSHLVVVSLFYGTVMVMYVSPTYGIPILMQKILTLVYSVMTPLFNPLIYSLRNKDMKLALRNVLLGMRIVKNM
Described as above. It is filed as cell-based. To be noted: Table 23. The protocol: as §1

For experiment [5], the target named is Olfr743 (Mus musculus, UniProt L7N1Y2). Described as above. It is filed as cell-based. The following applies: Table 23. The protocol:
as §1

Experiment [6] concerns the target Olfr738 (Mus musculus, UniProt L7N1X7). The experiment is described as above. To be noted: vs indole EC80; for pIC50: Table 22, first listing (r7-r45), read-out: Olfr738 IC50. It is filed as cell-based.
Experiment [7] deals with Olfr742 (Mus musculus, UniProt A2RTP5). The description is as above. It is filed as cell-based. To be noted: vs indole EC80; for Emax: HEK-293T, read-out: Olfr742 % Inhibition.
Experiment [8] deals with Olfr740 (Mus musculus, UniProt E9PV79). Described as above. It is filed as cell-based. To be noted: vs indole EC80; for Emax: HEK-293T, read-out: Olfr740 % Inhibition; for pIC50: Table 22, first listing (r7-r45), read-out: Olfr740 IC50.
Experiment [9] addresses Olfr741 (Mus musculus, UniProt L7N1Y5). Described as above. It is filed as cell-based.
Experiment [10] has as its target Olfr748 (Mus musculus, UniProt E9Q9Z0). Described as above. To be noted: Table 23. It is filed as cell-based.
In experiment [11] the test system is butyric acid malodor perception. Put plainly: Human sensory panel, perceived intensity of butyric acid. It is filed as in vivo. To be noted: Table 20. As for the experimental part: The pleasantness of the compounds delivered alone (triangles, dashed-line) and in a mixture with butyric acid at isointense concentrations (squares, solid line). Many of these compounds are shown to inhibit the activity of a butyric acid olfactory receptor.
Malodor receptor antagonist systems and compositions were evaluated at a gas phase concentration of 3.4 microg/1 air. The sensory method to evaluate compositions required the use of specially designed air dilution olfactometers to achieve well controlled and stable gas phase concentrations of the compositions and of the malodor to the group of test subjects.
The 30 subjects first evaluated the malodor reconstitution alone and then rated the 3 attributes “Freshness”, “Pleasantness” and “malodor” (the malodor character) on a 0 to 10 scale. The next evaluation was performed 30 seconds later to avoid odor adaptation, the malodor reconstitution was injected together with the test composition in the olfactometer. Ratings for the same descriptors recorded.

The target of experiment [12] is T4, OR51E1 olfactory receptor (Homo sapiens, UniProt Q8TCB6).
T4 construct: expressed in transfected cells
T4 sequence (Q8TCB6 1-318): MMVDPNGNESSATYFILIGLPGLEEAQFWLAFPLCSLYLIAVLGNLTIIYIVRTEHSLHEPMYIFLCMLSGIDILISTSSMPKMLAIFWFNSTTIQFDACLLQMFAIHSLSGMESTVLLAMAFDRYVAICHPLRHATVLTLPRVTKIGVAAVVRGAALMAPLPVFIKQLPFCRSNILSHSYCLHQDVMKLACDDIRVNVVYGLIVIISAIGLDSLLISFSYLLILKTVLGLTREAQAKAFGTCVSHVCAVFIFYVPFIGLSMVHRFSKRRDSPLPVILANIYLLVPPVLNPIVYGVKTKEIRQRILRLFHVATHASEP
Put plainly: Butyric acid olfactory receptor antagonist cell-based dose-response vs butyric acid EC80. The following applies: Table 20, spiro analogues; for Emax: read-out: Inhibition (%).

Experiment [13] has as its system 1-octen-3-ol mushroom/earthy/fungal odor perception. Put plainly: Human sensory performance of test compounds with and without 1-octen-3-ol. The following applies: Test Compound Only. It is filed as in vivo.
Experiment [14] concerns geonol receptors Olfr339, Olfr1487, Olfr1A1, OR11A1, Olfr96. Put plainly: Antagonists of geonol receptors (Example 11). It is filed as cell-based, mouse and human. More on the design: Inhibition(%): concentration or dose not given beside the values. The following applies: Table 18.
Experiment [15] relates to OR2W1 or the OR1A1 olfactory receptor. Description: 1-octen-3-ol olfactory receptor antagonist cell-based dose-response vs 1-octen-3-ol EC80.
Description: Each cell line was screened with a volatile compound library for their inhibitory properties and potential 1-octen-3-ol smell inhibition.
Single concentration monitoring of the 1-octen-3-ol induced cell activity in the presence or absence of a test compound allowed for the identification of compounds with a putative suppression or inhibitory effect.
Experiment [16] concerns geonol earthy/moss odor perception. Description: Human sensory performance of test compounds with and without geonol. It is filed as in vivo. The following applies: Test Compound Only. In short, it runs like this:
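Panelists first learned the earthy/moss quality from a geonol-only reference, then rated pleasantness, earthy/moss intensity and overall intensity of geonol alone, antagonist alone, and geonol mixed with isointense or low-intensity antagonist on a 0-10 linear scale. Samples were presented in glass jars in randomized order with two-minute intervals.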

Setting [17] is: Table 22, second listing of the same compounds.

pIC50: −log10 of the molar value. Where two headings read alike, the source gives them in different places. Some results are limits rather than exact numbers.

Chain of Olfr738 (L7N1X7 entry or part of it): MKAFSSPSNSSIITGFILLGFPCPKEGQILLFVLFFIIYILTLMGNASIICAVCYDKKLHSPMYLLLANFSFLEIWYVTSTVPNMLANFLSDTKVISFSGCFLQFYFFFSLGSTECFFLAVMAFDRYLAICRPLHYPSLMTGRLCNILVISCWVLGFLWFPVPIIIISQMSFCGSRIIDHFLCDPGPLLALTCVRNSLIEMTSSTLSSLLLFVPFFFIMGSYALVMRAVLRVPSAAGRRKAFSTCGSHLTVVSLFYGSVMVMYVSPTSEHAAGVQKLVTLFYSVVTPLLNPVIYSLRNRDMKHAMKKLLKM
Chain of Olfr740 (E9PV79 entry or part of it): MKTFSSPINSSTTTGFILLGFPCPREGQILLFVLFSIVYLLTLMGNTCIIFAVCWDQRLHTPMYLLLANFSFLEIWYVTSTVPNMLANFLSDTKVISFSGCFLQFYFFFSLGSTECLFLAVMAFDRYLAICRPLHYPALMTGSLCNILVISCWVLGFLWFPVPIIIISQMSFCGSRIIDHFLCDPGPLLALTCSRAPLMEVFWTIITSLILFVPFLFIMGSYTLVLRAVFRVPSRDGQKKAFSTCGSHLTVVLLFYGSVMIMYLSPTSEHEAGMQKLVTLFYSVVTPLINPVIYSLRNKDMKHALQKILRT
Chain of Olfr739 (E9Q1P0 entry or part of it): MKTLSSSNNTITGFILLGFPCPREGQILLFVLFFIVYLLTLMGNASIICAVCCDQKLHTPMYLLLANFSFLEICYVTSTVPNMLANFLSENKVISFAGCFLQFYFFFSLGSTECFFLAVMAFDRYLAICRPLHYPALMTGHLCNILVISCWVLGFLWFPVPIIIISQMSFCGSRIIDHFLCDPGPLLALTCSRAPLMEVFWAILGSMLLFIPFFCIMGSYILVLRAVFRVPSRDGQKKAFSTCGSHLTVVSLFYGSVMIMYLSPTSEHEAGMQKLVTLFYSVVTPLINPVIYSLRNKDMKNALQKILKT
Chain of Olfr748 (E9Q9Z0 entry or part of it): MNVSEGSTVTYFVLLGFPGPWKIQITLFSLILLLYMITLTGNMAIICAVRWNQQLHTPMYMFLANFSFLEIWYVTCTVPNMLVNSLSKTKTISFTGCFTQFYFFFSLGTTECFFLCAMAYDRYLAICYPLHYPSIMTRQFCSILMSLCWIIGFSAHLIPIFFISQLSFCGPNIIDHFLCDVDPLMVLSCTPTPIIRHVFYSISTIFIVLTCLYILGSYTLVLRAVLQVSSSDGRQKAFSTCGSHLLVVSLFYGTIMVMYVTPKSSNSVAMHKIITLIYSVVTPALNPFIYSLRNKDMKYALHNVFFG
Chain of Olfr743 (L7N1Y2 entry or part of it): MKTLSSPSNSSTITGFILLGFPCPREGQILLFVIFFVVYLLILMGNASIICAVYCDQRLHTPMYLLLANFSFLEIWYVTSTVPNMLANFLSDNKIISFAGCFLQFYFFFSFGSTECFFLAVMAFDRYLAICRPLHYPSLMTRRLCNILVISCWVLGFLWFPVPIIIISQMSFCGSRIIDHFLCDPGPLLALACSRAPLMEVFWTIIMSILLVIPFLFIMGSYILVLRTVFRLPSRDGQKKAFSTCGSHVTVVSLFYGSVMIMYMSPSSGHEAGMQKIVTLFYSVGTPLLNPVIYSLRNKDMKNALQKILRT
Chain of Olfr742 (A2RTP5 entry or part of it): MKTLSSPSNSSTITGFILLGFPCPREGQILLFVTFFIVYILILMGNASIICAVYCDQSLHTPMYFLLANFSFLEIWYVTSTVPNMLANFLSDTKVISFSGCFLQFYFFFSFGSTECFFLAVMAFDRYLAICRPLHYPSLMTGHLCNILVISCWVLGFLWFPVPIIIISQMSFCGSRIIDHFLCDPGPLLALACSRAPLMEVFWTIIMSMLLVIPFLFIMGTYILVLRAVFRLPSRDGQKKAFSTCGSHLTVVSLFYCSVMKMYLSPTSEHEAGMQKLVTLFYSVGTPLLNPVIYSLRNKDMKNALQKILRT
Chain of Olfr741 (L7N1Y5 entry or part of it): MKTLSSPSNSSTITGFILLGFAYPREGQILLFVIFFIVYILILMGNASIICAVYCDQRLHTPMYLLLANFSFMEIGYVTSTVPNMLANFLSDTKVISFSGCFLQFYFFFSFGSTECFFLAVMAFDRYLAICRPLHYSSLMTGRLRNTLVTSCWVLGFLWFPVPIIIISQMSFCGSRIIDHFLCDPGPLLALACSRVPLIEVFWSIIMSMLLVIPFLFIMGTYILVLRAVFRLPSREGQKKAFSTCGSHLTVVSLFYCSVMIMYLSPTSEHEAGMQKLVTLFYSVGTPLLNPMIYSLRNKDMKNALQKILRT

A word on the pIC50: it is the negative decadic logarithm of the IC50, by convention in mol/L. For the compound `C=C1CC[C@H]2O[C@]2(C)CC[C@@H]2[C@@H]1CC2(C)C`, the pIC50 in [1] was 3.95; in [2], 4.71; in experiment [3], 4.07; in [4], 4.21; in experiment [5], 3.72; in experiment [6] it was 4.74. Further, the negative-log IC50 (pIC50) in [7] (Table 22, first listing (r7-r45), read-out: Olfr742 IC50) is 4.00; in [8] it was 4.87; in experiment [9] (Table 22, first listing), 3.97; in [9] (setting [17]), 3.92; in experiment [10], 3.92. In addition, the “Olfr744 % Inhibition” value in experiment [1] was 55.20%. Further, the “Olfr739 % Inhibition” value in experiment [2] (Table 22, first listing) is listed as 102.21%; in experiment [2] (setting [17]) it was 55.20%. The “Olfr746 % Inhibition” value in experiment [3] is 13.17%. Further, in [4], the “Olfr749 % Inhibition” value is reported as 91.71%. Moreover, in experiment [5], the “Olfr743 % Inhibition” value came to 38.36%. The “Olfr738 % Inhibition” value is 54.69% in experiment [6] (Table 22, first listing) and 38.36% in experiment [6] (setting [17]). Also, the Emax in [7] (Table 22, first listing) amounted to 63%; in experiment [7] (setting [17]), 91.7%; in experiment [8] (Table 22, first listing) it was 203%; in experiment [8] (setting [17]), 13.2%. Further, the “Olfr741 % Inhibition” value in experiment [9] (Table 22, first listing) was 59.56%; in experiment [9] (setting [17]), 9.24%. In addition, the “Olfr748 % Inhibition” value in [10] was 9.24%.

Regarding `CC(=O)OC1C(C)(C)CCCC12C(C)C=CCC2C` (stereo not drawn), the “Sensory Performance (%)” value in [11] came out at 43%. In addition, in [12], the pIC50 was 4.14 and the Emax came to 72%.

`CC(=O)OC1C(C)(C)CCCC12CC(C)C(C)C2` (stereo not drawn): the “Sensory Performance (%)” value in experiment [11] turned out to be 50%. Further, in experiment [12], the pIC50 was 4.29 and the Emax is 62%.

The % Inhibition is the drop in the measured response relative to a control, in per cent. Take `CC1(C)CCC[C@]2(C)CC(=O)CC[C@@H]12` (racemic) [(+−)-perhydro-5,5,8A-trimethyl-2-trans-naphthalenone]: the pIC50 is 4.13 in experiment [1]; 4.86 in [2]; 3.51 in experiment [3]; 4.38 in [4]; 3.58 in experiment [5]; 5.56 in [6]. Moreover, the pIC50 was 5.71 in experiment [8]; 3.83 in experiment [9] (Table 22, first listing); 3.97 in experiment [10]; 4.01 in experiment [14]; 4.20 in [15] (1-octen-3-ol at EC80). Further, in [1], the “Olfr744 % Inhibition” value turned out to be 107.89%. In addition, in [2] (Table 22, first listing), the “Olfr739 % Inhibition” value was 68.44%. Moreover, the “Olfr746 % Inhibition” value in experiment [3] was 81.36%. The “Olfr749 % Inhibition” value in experiment [4] is 96.98%. Moreover, the “Olfr743 % Inhibition” value in [5] came out at 123.10%. For the same compound, the “% Mushroom/Earthy/Fungal Odor” value in experiment [13] was 30.80%. For the same compound, in experiment [6] (Table 22, first listing), the “Olfr738 % Inhibition” value was 101.72%. Further, the Emax in experiment [8] (Table 22, first listing) came out at 127%. Further, the “Olfr741 % Inhibition” value in [9] (Table 22, first listing) amounted to 96.86%. In experiment [10], the “Olfr748 % Inhibition” value was 65.60%. Besides, in experiment [14], the “Inhibition(%)” value was found to be 71%. Moreover, in experiment [15] (maximum inhibition normalized to baseline agonist activity), the “% Inhibition” value came out at 102.97%. The “% Earthy/Moss Odor” value in experiment [16] is given as 45.20%.

As to `C=C(C)CC1(CC(=C)C)CCCC(C)(C)C1=O` [2,2-dimethyl-6,6-bis(2-methylprop-2-enyl)cyclohexan-1-one], the “Sensory Performance (%)” value in experiment [11] was found to be 50%. Besides, in [12], the pIC50 is 4.33 and the Emax turned out to be 103%.

For `CC1=C(C)CC2(CCCC(C)(C)C2O)C1` (stereo not drawn) [2,3,9,9-tetramethylspiro[4.5]dec-2-en-10-ol], in experiment [11], the “Sensory Performance (%)” value came to 60%. Also, in experiment [12], the pIC50 was 4.10 and the Emax was found to be 16%.

`CC1=C(C)CC2(CCCC(C)(C)C2=O)C1` [2,3,9,9-tetramethylspiro[4.5]dec-2-en-10-one]: the “Sensory Performance (%)” value in [11] came out at 56%.

Consider `CC(=O)OC1C(C)(C)CCCC12CC(C)=C(C)C2` (stereo not drawn) [(2,3,9,9-tetramethylspiro[4.5]dec-2-en-10-yl) acetate], for which, in [11], the “Sensory Performance (%)” value came to 40%. Further, in experiment [12], the pIC50 was less than 3.22 and the Emax is 116%.
